{"source": "patent US20130245038A1", "about": "“Method For Selecting Or Identifying A Subject For V1B Antagonist Therapy” (ABBVIE DEUTSCHLAND GMBH & CO. KG, priority 2012, published 2013)", "format_in_all_cases": "in vivo, human", "key": {"HPA axis activity [1]": {"test_system": "HPA axis activity", "experiment": "HPA axis function measures (plasma ACTH, serum, saliva and urine cortisol, urine glucocorticoids) in MDD subjects of the clinical study", "settings": "for Reduction of urine glucocorticoids compared to placebo: Day 6 to 7", "protocol": "Higher urine glucocortioids was defined as ≧3.44 mg per mg creatinine, in a 24-hour collection on the day prior to initiation of study drug administration. The analysis of covariance model for Day 6 to 7 urine glucocorticoids included Day −2 to −1 (baseline) urine glucocorticoids as a covariate and factors for investigator, treatment and treatment * baseline urine glucocorticoids interaction.\n(§1) A randomized, placebo-controlled, double-blind clinical study of the safety and pharmacodynamics of Compound A in subjects with MDD was conducted. Fifty-one subjects with a M.I.N.I.-confirmed primary diagnosis of MDD and a clinical global impression of severity of 3 or 4 were randomized to 800 mg Compound A QD (n=31) or matching placebo (n=20) for 7 days. Subjects were confined at clinical sites from two days prior to initial study drug administration until 24 hours after the last dose of study drug. HPA axis function was thoroughly assessed prior to study drug administration and on the 6th and 7th dosing days. A panel of genetic variants related to HPA axis function was assayed. One stated aim of this study was to define a means to identify MDD subjects more likely to respond to Compound A, prior to Compound A administration.\nIn a ROC analysis, the dependent variable was responder status based on a cutoff on GDM of −0.53. The independent variable was baseline amount of urine glucocorticoids (the sum of cortisol, cortisone, alpha-tetrahydrocortisol, beta-tetrahydrocortisol and tetrahydrocortisone) collected during a 24-hour interval, divided by the amount of creatinine in the same urine collection. The optimal cutoff was 3.44 mg glucocorticoids per mg creatinine. This provided a sensitivity of 58% (14/24 Compound A responders included) and specificity of 67% (4 of 6 Compound A non-responders excluded). One Compound A subject was not included in this analysis due to missing urine glucocorticoid data."}, "HPA axis activity [2]": {"test_system": "HPA axis activity", "experiment": "Urine glucocorticoids in healthy adults who received Compound A or placebo", "from_the_text": "Higher urine glucocorticoids subjects are those in whom Compound A effects larger decreases of tonic HPA axis activity, and thus an appropriate population for treatment of MDD using a V1B antagonist."}, "subjects with MDD [3]": {"test_system": "subjects with MDD", "experiment": "Randomized, placebo-controlled, double-blind clinical study in subjects with MDD: MASQ and HAM-D symptom scores", "from_the_text": "High AVP was defined as ≧8.6 pg/mL, in a sample drawn at approximately 8 am or 2 pm on the day prior to initiation of study drug administration. Least squares means and standard errors are shown from analyses of covariance that included Day −1 (baseline) score as a covariate and factors for investigator, treatment, AVP class and treatment * AVP class interaction.\nas §1\nAVP was the only parameter initially analyzed as a potential predictor of Compound A response as the daytime plasma level prior to study drug administration, measured at any of three times of day (approximately 8 am, 2 pm, and 10 pm), was the most prominent difference of baseline HPA axis function between MDD subjects in this study and HNV subjects of other studies.\nReceiver operator characteristic (ROC) analysis was used. In a first ROC, the dependent variable was treatment and the independent variables were the MASQ subscales. This ROC aimed to define MASQ scale score changes that were characteristic of subjects who received Compound A and not characteristic of those who received placebo. Such score changes can be thought to distinguish Compound A responders from Compound A non-responders. Of the five MASQ subscales, General Distress Mixed (GDM) and Depressive (GDD) subscales differentiated Compound A from placebo subjects. […] Similar results were obtained when the dependent variables were analyzed as percent, rather than absolute, change from baseline.\nThe interaction of AVP (high v normal) and treatment (Compound A v placebo) is shown below. The dependent variables were the MASQ scale scores and the Hamilton Depression Rating Scale (HAM-D)—version score on Day 7. The corresponding scale score on Day −2 was a covariate in each model. Each model included factors for investigator, AVP, treatment and the interaction of AVP and treatment. […] MASQ total scores were normalized to a 1 to 5 scale."}, "[4]": {"test_system": "physiological response to a stressor (CRH challenge)", "experiment": "Cortisol reactivity to a CRH challenge in MDD subjects of the clinical study", "settings": "maximum post-CRH serum cortisol divided by pre-CRH serum cortisol, Day 7", "from_the_text": "as §1, with “High AVP was defined as ≧8.6 pg/mL, in a sample drawn at approximately 8 am or 2 pm on the day prior to initiation of study drug administration. The analysis of covariance model for Day 7 cortisol reactivity included Day −1 (baseline) cortisol reactivity as a covariate and factors for investigator, treatment, AVP class and treatment * AVP class interaction. A randomized,” for “A randomized,”, “A administration. […]” for “A administration.”"}, "subjects with MDD [5]": {"test_system": "subjects with MDD", "experiment": "Randomized, placebo-controlled, double-blind clinical study in subjects with MDD: MASQ and HAM-D symptom scores", "remark": "listed apart in the source"}, "[6]": {"settings": "Compound A 800 mg QD for 7 days v placebo, MDD subjects"}, "[7]": {"settings": "ROC, dependent variable treatment (Compound A 800 mg QD, n=31, v placebo, n=20), MASQ GDM score change, cutoff X −0.53"}, "[8]": {"settings": "high AVP ≧8.6 pg/mL, Compound A 800 mg QD v placebo"}, "[9]": {"settings": "ROC, dependent variable treatment (Compound A 800 mg QD, n=31, v placebo, n=20), MASQ GDD score change, cutoff X −0.58"}}}
{"compound": "CCOc1ncccc1[C@]1(NC(=O)N2CCN(C3CCN(C)CC3)CC2)C(=O)N(S(=O)(=O)c2ccc(OC)cc2OC)c2ccc(C#N)cc21", "note": "[Compound A]", "values": [{"measurement": "Neuroendocrine effects on plasma ACTH, serum cortisol, urine cortisol and total glucocorticoids, high AVP v normal AVP subjects", "setting": "HPA axis activity [1]; MDD subjects, comparison of the two AVP groups", "value": "did not differ"}, {"measurement": "Reduction of urine glucocorticoids compared to placebo", "setting": "HPA axis activity [1]; higher urine glucocorticoids MDD subjects (≧3.44 mg per mg creatinine at baseline)", "value": "larger reductions of urine glucocorticoids"}, {"measurement": "Reduction of urine glucocorticoids compared to placebo", "setting": "HPA axis activity [1]; lower urine glucocorticoids MDD subjects", "value": "limited or no difference of reduction of urine glucocorticoids"}, {"measurement": "Relationship of baseline urine glucocorticoids and reduction of urine glucocorticoids compared to placebo", "setting": "HPA axis activity [2]", "value": "The same relationship has been observed"}, {"measurement": "ANCOVA factor for treatment on MASQ GDM and GDD subscales", "setting": "subjects with MDD [3]; [6]", "value": "statistically significant factors for treatment"}, {"measurement": "False Negative", "setting": "subjects with MDD [3]; [7]", "value": 7}, {"measurement": "True Positive", "setting": "subjects with MDD [3]; [7]", "value": 24}, {"measurement": "Interaction of AVP (high v normal) and treatment, MASQ GDD score on Day 7", "setting": "subjects with MDD [3]; [8]", "value": "statistically significant"}, {"measurement": "Interaction of AVP (high v normal) and treatment, MASQ GDM, AD and 7-item HAM-D scores on Day 7", "setting": "subjects with MDD [3]; [8]", "value": "numerically favorable trends"}, {"measurement": "Physiological response to a stressor (CRH challenge) compared to placebo", "setting": "[4]; high AVP MDD subjects", "value": "lower physiological response to a stressor"}, {"measurement": "Physiological response to a stressor (CRH challenge) compared to placebo", "setting": "[4]; normal AVP MDD subjects", "value": "limited or no difference of stress response"}, {"measurement": "ANCOVA factor for treatment on MASQ AD, AA and GDA subscales", "setting": "subjects with MDD [5]; [6]", "value": "not"}, {"measurement": "False Negative", "setting": "subjects with MDD [5]; [9]", "value": 3}, {"measurement": "True Positive", "setting": "subjects with MDD [5]; [9]", "value": 28}, {"measurement": "Interaction of urine glucocorticoids divided by creatinine (higher v lower) and treatment, MASQ GDM, GDD, GDA, AA and 17- and 7-item HAM-D", "setting": "subjects with MDD [5]; higher ≧3.44 mg per mg creatinine, 24-hour collection", "value": "numerically favorable trends"}, {"measurement": "Interaction of urine glucocorticoids divided by creatinine (higher v lower) and treatment, MASQ and HAM-D scores on Day 7", "setting": "subjects with MDD [5]; higher ≧3.44 mg per mg creatinine, 24-hour collection, all dependent variables", "value": "not statistically significant"}, {"measurement": "Symptom changes on MASQ and HAM-D", "setting": "subjects with MDD [5]; subset of subjects distinguished by AVP, copeptin and rs7088418/rs17169521 genotypes", "value": "more favorable symptom changes"}, {"measurement": "Symptom changes on MASQ and HAM-D", "setting": "subjects with MDD [5]; subset of subjects distinguished by NR3C1 genotypes (rs10482672; similar for rs17100236)", "value": "unfavorable symptom changes"}]}
